pIC50: −log10 of the molar value. Entries after “also recorded” stand apart in the source; their conditions may differ. A value given as a limit tells only on which side of the number the result lay.

The target of assay [1] is T1, phosphorylated Syk (p-Syk) in Ramos cells (Homo sapiens, UniProt P43405).
T1 construct: endogenous in cells; host or cells: Ramos (ATCC), THP-1 (ATCC), human CD14+ monocytes (Lonza)
Put plainly: p-Syk ELISA in anti-IgM-stimulated Ramos cells (BCR signal). In kind it is cell-based. Here is the method: (§1) THP-1 and Ramos cell lines and human CD14^+ monocytes were purchased from the American Type Culture Collection (ATCC) and Lonza, respectively. After treatment with Syk inhibitors for 1 h, THP-1 cells and monocytes were stimulated for 15 min with 100 μg/ml human IgG (Invitrogen), and Ramos cells were stimulated with 2 μg/ml anti-human IgM monoclonal Ab (mAb) (Bathyl). Cells were lysed in RIPA buffer containing 1% NP-40, 1% sodium deoxycholate, 0.1% SDS, and a mixture of protease and phosphatase inhibitors (Thermo Scientific). The lysates were assayed by standard immunoblotting methods and ELISA. Primary Abs used for immunoblotting were anti-phospho-Syk ([…]), anti-phospho-Vav (Y174), anti-phospho-PLCγ1 (Y1217) and anti-phospho-BLNK (Y96) Abs (all from Cell Signaling). ELISAs to detect phospho-Syk (Y525/526) were performed according to the manufacturer’s protocol (Cell Signaling).
(§2) Ramos cells (A), human primary monocytes (B), and THP cells (C) were pretreated with inhibitors at the indicated concentrations and stimulated with anti-human IgM (A) and human IgG (B and C). […] The relative intensities of protein phosphorylation levels were quantitated with reference to each lane of β-actin control bands. (D) Ramos cells, human primary monocytes, and THP cells were treated as in A–C for 24 h and levels of phosphorylated Syk (p-Syk) were measured by ELISA.

The target of a further assay is Syk (Homo sapiens, UniProt P43405). Put plainly: Kinase assay (LANCE Ultra TR-FRET), Syk. In kind it is biochemical. How it is done:
(§3) Kinase assays were conducted in 384-well plates using LANCE ultra 66 time-resolved fluorescence resonance energy transfer (TR-FRET) methods, according to the manufacturer’s instructions (Perkin-Elmer). In brief, each kinase was pre-incubated with a serially diluted compound for 30 min, incubated with ULight poly-GT peptide substrate and ATP for up to 1 h. Thirty minutes after adding Eu-labeled anti-phosphopeptides Ab diluted in LANCE Detection Buffer, LANCE signals were measured with an EnVision multilabel reader (Perkin-Elmer).
For orientation: TR-FRET usually uses a lanthanide donor and a delayed reading to cut background.

Another assay concerns the target FGFR2 (Homo sapiens, UniProt P21802). Put plainly: Kinase assay (LANCE Ultra TR-FRET), FGFR2. The assay is classed as biochemical. Here is the method: as §3
A further assay addresses FGFR3 (Homo sapiens, UniProt P22607). Put plainly: Kinase assay (LANCE Ultra TR-FRET), FGFR3. The assay is classed as biochemical. How it is done:
as §3

In a further assay the test system is human primary B cells. In words: IgM, IgG and IL-6 secretion by stimulated human primary B cells (ELISA). In kind it is cell-based. To be noted: TLR9 agonist plus IL-2 or IFN-α; efficacy comparable to R406. How it is done:
Human CD19^+ B cells (Lonza) were pre-treated with inhibitors for 1 h and stimulated for 24 h with 50 nM CpG ODN 2006 plus 10 ng/ml IL-2 or 1 μM CpG ODN 2006 plus 20 ng/ml IFN-α. Culture supernatants were assayed by ELISA to detect secreted IgG, IgM, and IL-6, according to the manufacturer’s instructions.
Figure 2: in vitro effects of SKI-O -703 on the proliferation, survival, and differentiation of B cells. Mouse primary B cells were labeled with CP670, and stimulated with either anti-IgM mAb, CD40L and IL-4 (A) or LPS (B) for 72 h in the presence or absence of SKI-O-703 and tofacitinib at the indicated concentrations; they were then assayed by FACS. (C and D) Mouse primary B cells were cultured as in A and B for 24 h, stained with Annexin V and 7-AAD, and assayed by FACS. Representative FACS profiles and graphs displaying mean Annexin V-positivity are shown. (E) Human primary B cells were stimulated with CpG ODN plus IL-2 (to detect IgM and IgG) or CpG ODN 2006 plus IFN-α (to detect IL-6) in the presence or absence of inhibitors. The culture supernatants were assayed by ELISA. Graphs are expressed as % positivity relative to the controls (without inhibitor). The data are representative of 2–3 independent experiments. *P < 0.05, **P < 0.01, and ***P < 0.001, compared with vehicle control by two-tailed unpaired Students t-tests.
In general terms: ELISA stands for enzyme-linked immunosorbent assay.

Assay [2] concerns the target T2, phosphorylated Syk (p-Syk) in THP-1 cells (Homo sapiens, UniProt P43405).
T2 construct: endogenous in cells; host or cells: Ramos (ATCC), THP-1 (ATCC), human CD14+ monocytes (Lonza)
In words: p-Syk ELISA in IgG-stimulated THP-1 cells (FcγR signal). In kind it is cell-based. Here is the method:
as §1, §2

In a further assay the target is T3, Zap70 (Homo sapiens, UniProt P43403).
T3 construct: endogenous in cells; host or cells: human peripheral T cells sorted from PBMC, stimulated with anti-CD3 and anti-CD28
Put plainly: Immunoblotting of Zap70 phosphorylation in TCR-stimulated T cells. In kind it is cell-based. To be noted: 0.3–10 μM.

Chain of FGFR3 (P22607 23-806, species assumed): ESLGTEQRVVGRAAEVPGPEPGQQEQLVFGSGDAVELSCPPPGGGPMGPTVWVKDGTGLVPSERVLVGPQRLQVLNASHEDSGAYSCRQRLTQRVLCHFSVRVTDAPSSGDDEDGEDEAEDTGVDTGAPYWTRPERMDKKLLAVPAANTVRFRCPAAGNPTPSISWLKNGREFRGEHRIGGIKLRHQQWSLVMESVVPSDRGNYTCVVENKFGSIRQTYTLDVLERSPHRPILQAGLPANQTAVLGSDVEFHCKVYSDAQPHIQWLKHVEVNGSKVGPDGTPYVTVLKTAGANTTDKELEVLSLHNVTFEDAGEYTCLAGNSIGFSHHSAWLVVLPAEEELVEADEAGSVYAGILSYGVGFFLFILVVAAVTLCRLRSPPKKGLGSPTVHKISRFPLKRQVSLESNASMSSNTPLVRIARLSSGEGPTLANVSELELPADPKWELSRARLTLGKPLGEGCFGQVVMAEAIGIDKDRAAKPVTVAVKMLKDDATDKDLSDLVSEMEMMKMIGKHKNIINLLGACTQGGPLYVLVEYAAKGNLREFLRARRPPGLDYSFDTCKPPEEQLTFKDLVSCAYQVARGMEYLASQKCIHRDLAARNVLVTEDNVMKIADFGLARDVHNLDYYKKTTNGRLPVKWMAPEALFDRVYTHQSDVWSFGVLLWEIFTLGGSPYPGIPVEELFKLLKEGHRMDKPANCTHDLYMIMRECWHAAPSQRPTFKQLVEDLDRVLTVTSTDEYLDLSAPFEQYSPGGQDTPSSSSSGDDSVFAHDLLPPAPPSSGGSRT
T3 sequence (P43403 whole entry): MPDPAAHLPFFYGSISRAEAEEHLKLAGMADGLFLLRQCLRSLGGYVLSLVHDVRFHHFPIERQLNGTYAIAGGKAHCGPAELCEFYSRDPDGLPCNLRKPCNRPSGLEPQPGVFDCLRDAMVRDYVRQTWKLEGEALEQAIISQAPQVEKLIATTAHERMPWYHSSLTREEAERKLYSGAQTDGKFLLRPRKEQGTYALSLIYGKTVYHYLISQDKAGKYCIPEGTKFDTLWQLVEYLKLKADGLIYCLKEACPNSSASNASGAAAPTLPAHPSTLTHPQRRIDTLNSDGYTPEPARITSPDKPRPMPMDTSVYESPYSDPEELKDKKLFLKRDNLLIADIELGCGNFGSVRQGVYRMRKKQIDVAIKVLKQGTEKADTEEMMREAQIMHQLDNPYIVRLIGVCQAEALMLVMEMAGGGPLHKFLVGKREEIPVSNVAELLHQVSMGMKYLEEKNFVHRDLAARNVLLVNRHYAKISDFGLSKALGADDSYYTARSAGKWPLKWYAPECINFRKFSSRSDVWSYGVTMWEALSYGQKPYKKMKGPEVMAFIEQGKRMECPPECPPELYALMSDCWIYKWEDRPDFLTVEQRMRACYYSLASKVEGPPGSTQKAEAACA
Chain of FGFR2 (P21802 22-821, species assumed): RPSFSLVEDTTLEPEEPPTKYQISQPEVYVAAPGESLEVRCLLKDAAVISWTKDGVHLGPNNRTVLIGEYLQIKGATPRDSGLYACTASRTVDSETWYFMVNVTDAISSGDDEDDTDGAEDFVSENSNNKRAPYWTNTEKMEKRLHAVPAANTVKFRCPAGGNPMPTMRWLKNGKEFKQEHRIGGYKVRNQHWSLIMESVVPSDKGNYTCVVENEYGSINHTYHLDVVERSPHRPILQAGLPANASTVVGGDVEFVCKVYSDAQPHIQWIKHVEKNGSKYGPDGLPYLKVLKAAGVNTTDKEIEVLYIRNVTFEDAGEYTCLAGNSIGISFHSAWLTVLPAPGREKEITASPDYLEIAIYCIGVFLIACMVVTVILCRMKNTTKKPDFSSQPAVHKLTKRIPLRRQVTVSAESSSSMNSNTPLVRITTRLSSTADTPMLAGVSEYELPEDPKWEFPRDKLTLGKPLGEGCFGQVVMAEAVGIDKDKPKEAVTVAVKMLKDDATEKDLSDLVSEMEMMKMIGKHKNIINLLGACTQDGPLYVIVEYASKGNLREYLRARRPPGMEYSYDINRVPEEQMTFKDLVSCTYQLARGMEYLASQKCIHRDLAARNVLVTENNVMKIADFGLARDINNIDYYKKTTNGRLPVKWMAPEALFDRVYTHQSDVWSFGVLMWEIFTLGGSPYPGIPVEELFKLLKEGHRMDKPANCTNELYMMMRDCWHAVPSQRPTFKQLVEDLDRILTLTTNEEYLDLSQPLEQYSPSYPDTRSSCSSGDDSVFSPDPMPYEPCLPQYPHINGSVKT
Description for Zap70: (A) The stru cture of SKI-O-703. (B-D) Human per ipheral T cells sorted fro m human peripheral blood mononuclear cells (B and D) and mouse primary T cells sorted from spleen (C ) wer e stimulated with 5 µ g/ml anti- CD3 and 2 µ g/ml anti- CD28 m Abs in the presence or absence of inhibitors as indicated. Af ter one hour (B) and 24 h ours (C and D) of culture, cells we re assaye d
by immunoblotting (B), FA C S ( C), and ELISA (D).
of Zap70 and its downstream target PLCγ1. It’s effect on the suppression of IL-2 production

`Cc1nn(-c2ccnc(Nc3ccc4c(c3)c(C(=O)C3CC3)cn4C)n2)cc1CN1C[C@H](O)CO1` [SKI-O-592]: the pIC50 was 6.55 in assay [1]; 8.21 on Syk (kinase activity, TR-FRET); less than 5.00 against FGFR2 (kinase activity, TR-FRET); 5.25 against FGFR3 (kinase activity, TR-FRET); 6.58 in assay [2]. Moreover, the “Ratio to Syk (Syk)” value at Syk (IC50 ratio to Syk) came to 1.0. For the same compound, on Syk (fold higher than against Syk), the “IC50 against all other kinases tested relative to Syk” value was 67- to 2753 fold. Moreover, the “Potency as Syk kinase inhibitor relative to R406” value on Syk (more potent than R406) is recorded as “approximately 9 fold”. Moreover, the “Ratio to Syk (FGFR2)” value on FGFR2 (IC50 ratio to Syk) is reported as greater than 1623. Moreover, the “Ratio to Syk (FGFR3)” value at FGFR3 (IC50 ratio to Syk) stood at 919. The “Production of IgM, IgG and IL-6” value in the assay on human primary B cells is “inhibited the production of IgM, IgG, and IL-6”. Also, on Zap70, the “Phosphorylation of Zap70 and its downstream target PLCγ1” value is “did not inhib it phosphorylation; also recorded: failed to affect”.

A word on the pIC50: it is the IC50 on a negative log10 scale, so that one unit is a factor of ten. High values mean a small IC50, low ones a large IC50.

The values above are taken from article PMC9993459, “A novel selective spleen tyrosine kinase inhibitor SKI-O-703 (cevidoplenib) ameliorates lupus nephritis and serum-induced arthritis in murine models” (Clinical and Experimental Immunology, 2022).
